Source: US20060166994A1, “Method for treating renal failure” (priority 2003, published 2006)

Legend:
[1] = 180-day mortality in heart failure patients with normal or impaired renal function (pooled levosimendan trials 3001021b and 3001030); format: in vivo, human; conditions: for 180-day mortality in levosimendan groups: heart failure patients, i.v. infusion 6 or 24 h
Experimental: In total, 701 heart failure patients from levosimendan trials 3001021b and 3001030 were included into the analysis to determine the effect of levosimendan on mortality in patients with normal or impaired renal function.
The study 3001021b compared levosimendan with dobutamine in a double-blind, parallel-group, randomised trial in 203 patients with low-output heart. Treatment with levosimendan (n=103) was started with a loading dose of 24 μg/kg infused over 10 minutes and followed by a continuous infusion of 0.1 μg/kg/min. For patients in whom the cardiac index had not increased by at least 30% compared with the baseline value at 2 hours, the dose was doubled to 0.2 μg/kg/min for levosimendan (n=69). Infusions were continued for totally 24 hours. Mortality was followed prospectively up to 31 days and retrospectively up to 180 days.
The study 3001030 evaluated the safety of levosimendan in patients with left ventricular failure after an acute myocardial infarction. The study was a placebo-controlled, double-blind, parallel-group, randomised, trial in 504 patients. Levosimendan was administered as a 10-minute loading dose followed by a continuous infusion for a total of 6 hours. The following doses were used: 6 μg/kg+0.1 μg/kg/min (n=103), 12 μg/kg+0.2 μg/kg/min (n=100), 24 μg/kg+0.2 μg/kg/min (n=99), 24 μg/kg+0.4 μg/kg/min (n=100) and similar placebo infusion (n=102). All-cause mortality was followed prospectively up to 14-days and retrospectively up to 180-days.
The patients combined from the above studies were classified according to their baseline renal function. The formula of Cockroft and Gault (Lafayette et al, 1997) was used to calculate the creatinine clearance (CLcr) values from the baseline serum creatinine) values as follows: [formula] [formula]

[2] = Elimination half-life of the active metabolite (II) in man; conditions: human, in vivo

SMILES | Decrease in mortality versus control groups by renal function ([1]; 180-day, comparison of normal and impaired renal function) | 180-day mortality in levosimendan groups ([1]; mild renal impairment (CLcr 50-80 ml/min)) [%] | 180-day mortality in levosimendan groups ([1]; normal renal function (CLcr > 80 ml/min)) [%] | half-life [2] [h]
CC1CC(=O)NN=C1c1ccc(NN=C(C#N)C#N)cc1 (single isomer, unassigned; (-)) [Levosimendan, (−)-enantiomer of [[4-(1,4,5,6-tetrahydro-4-methyl-6-oxo-3-pyridazinyl)phenyl]hydrazono]propanedinitrile] | decrease in mortality was highest in patients with impaired renal function | 18 | 15 | 
CC(=O)Nc1ccc(C2=NNC(=O)C[C@H]2C)cc1 [active metabolite (II), (R)-N-[4-(1,4,5,6-tetrahydro-4-methyl-6-oxo-3-pyridazinyl)phenyl]acetamide] |  |  |  | ~72
